Consider ten compounds from ChEMBL document CHEMBL3580552, “Antiplasmodial and Cytotoxic Triterpenoids from the Bark of the Cameroonian Medicinal Plant Entandrophragma congoënse” (J Nat Prod, 2015).

One data set has as its system Plasmodium falciparum. Put plainly: Antiplasmodial activity against chloroquine-sensitive erythrocytic stage Plasmodium falciparum NF54 assessed as [3H]hypoxanthine incorporation after 48 to 72 hrs by Betaplate liquid scintillation counting. The class given is functional, organism-based.
The next data set has as its system L6. In words: Cytotoxicity against rat L6 cells after 72 hrs by Alamar blue assay. It is filed as cell-based. Conditions: L6, 72 h. For orientation: Resazurin is reduced to fluorescent resorufin, in cell work by metabolically active cells.
Data set [1] is described as follows: Selectivity index, ratio of IC50 for rat L6 cells to IC50 for erythrocytic stages of Plasmodium falciparum NF54. The class given is toxicity, cell-based. The settings on record: read-out: Ratio IC50.

In the case of `CC(=O)O[C@@H]1C[C@H]2C(C)(C)[C@H](O)CC[C@]2(C)[C@H]2CC[C@]3(C)C(=CC[C@H]3[C@@H]3C[C@H]([C@H](O)C(C)(C)O)OC3=O)[C@@]21C`, the values for the IC50 with Plasmodium falciparum and in the data set with L6 (read-out: IC50) were 2 µM and 42.4 µM, respectively. Besides, in data set [1], the selectivity ratio turned out to be 21.

For `COc1cc([C@@H]2c3cc4c(cc3[C@H](O)[C@H]3COC(=O)[C@H]23)OCO4)cc(OC)c1OC` [PODOFILOX], it took 0.012 µM to reach half-maximal inhibition with L6 (IC50).

Consider `CC(=O)O[C@@H]1CC[C@]2(C)[C@H]3CC[C@]4(C)C(=CC[C@H]4[C@@H]4C[C@H]([C@H](O)C(C)(C)O)OC4=O)[C@]3(C)[C@H](OC(C)=O)C[C@H]2C1(C)C`, for which the IC50 worked out at 0.87 µM with Plasmodium falciparum and 11 µM with L6 (read-out: IC50). For the same compound, the selectivity ratio in data set [1] was 12.7.

For the compound `CO[C@@H]1O[C@@H]([C@H](O)C(C)(O)CO)C[C@H]1[C@@H]1CC[C@]23C[C@]12CC[C@@H]1[C@@]2(C)CC[C@H](OC(=O)C=C(C)C)C(C)(C)[C@@H]2C[C@@H](O)[C@]13C` (stereo partly drawn), the IC50 is 1.3 µM in the data set on Plasmodium falciparum and 11.9 µM with L6 (read-out: IC50). Moreover, the selectivity ratio in data set [1] turned out to be 9.

With `C=C(C)[C@@H]1CC=C2[C@H](CC[C@@]3(C)[C@H]([C@@H](C)CC(O)C(O)C(C)(C)O)CC[C@]23C)[C@@]1(C)CCC(=O)O` (stereo partly drawn), the IC50 in the data set with Plasmodium falciparum turned out to be 19.3 µM; in the data set on L6 (read-out: IC50) it was 56.1 µM. In addition, the selectivity ratio in data set [1] worked out at 2.9.

Turning to `CC(=O)O[C@@H]1C[C@H]2C(C)(C)C(=O)C=C[C@]2(C)[C@H]2CC[C@]3(C)C(=CC[C@H]3[C@@H]3C[C@H]([C@@H]4OC4(C)C)OC3=O)[C@@]21C`, the IC50 in the data set with Plasmodium falciparum came out at 0.44 µM; in the data set with L6 (read-out: IC50), 5.3 µM. In data set [1], the selectivity ratio amounted to 12.1.

Take `CC(C)=CC(=O)O[C@H]1CC[C@]2(C)[C@H]3CC[C@]45C[C@]4(CC[C@H]5[C@@H]4C[C@H]([C@H](O)C(C)(C)O)O[C@H]4O)[C@]3(C)[C@H](O)C[C@H]2C1(C)C`: the IC50 with Plasmodium falciparum was 1.4 µM; in the data set on L6 (read-out: IC50) it was 6.5 µM. The selectivity ratio in data set [1] worked out at 4.4.

For `CC(C)(O)[C@H](O)[C@H]1C[C@@H]([C@@H]2CC=C3[C@]4(C)[C@H](O)C[C@H]5C(C)(C)C(=O)C=C[C@]5(C)[C@H]4CC[C@]32C)C(=O)O1`, the results for the IC50 in the data set with Plasmodium falciparum and with L6 (read-out: IC50) were 1.3 µM and 32.3 µM, respectively. Further, in data set [1], the selectivity ratio is 25.2.

For `CC(=O)O[C@@H]1C[C@H]2C(C)(C)C(=O)C=C[C@]2(C)[C@H]2CC[C@]3(C)C(=CC[C@H]3[C@@H]3C[C@H]([C@H](O)C(C)(C)O)OC3=O)[C@@]21C`, the IC50 came to 0.67 µM in the data set on Plasmodium falciparum and 70.6 µM in the data set on L6 (read-out: IC50). Also, the selectivity ratio in data set [1] was found to be 105.

For the compound `CC(C)=CC(=O)O[C@H]1CC[C@]2(C)[C@H]3CC[C@]45C[C@]4(CC[C@H]5[C@@H]4C[C@H]([C@@H]5O[C@@]5(C)CO)O[C@H]4O)[C@]3(C)[C@H](O)C[C@H]2C1(C)C`, the figures for the IC50 in the data set with Plasmodium falciparum and in the data set on L6 (read-out: IC50) were 1.3 µM and 8.6 µM, respectively. For the same compound, the selectivity ratio in data set [1] was 6.8.

The term IC50 denotes the concentration needed to halve the response being measured.
